# Patent publication US4927826A, “Cycloproylpropenamides useful as platelet activing factor (PAF) antagonists” (Hoffman-La Roche Inc., priority 1988, dated 1990)
# pIC50: −log10 of the molar value.
# Experiments:
# [1] = system: dog platelets; experiment: Binding assay: inhibition of 3H-PAF binding to dog platelets; details: 10 minutes at room temperature
# Experimental: The binding assay was done in 400 μl polyethylene microcentrifuge tubes (Beckman) containing 50 μl of an oil mixture of 2 parts Siliconol AR200 (Serva): 1 part Silicone Fluid (Arthur H. Thomas). Buffer, standards, or analogs (150 μl total volume) were added to the tubes. Radiolabelled ^3 H-PAF (50 μl) was then added to the tubes. The reaction was started by the addition of 50 μl of dog platelets (2×10^7 platelets). The tubes were capped, inverted several times to mix, and incubated for 10 minutes at room temperature. The platelets were separated from the incubation mixture by centrifuging 1 minute in a Beckman Microfuge B centrifuge. The tip of the microfuge tube was cut off, and the platelets were washed out of the tip with 200 μl of 50% methanol (Burdick and Jackson). Aquasol (NEN, 10 ml) was added and the radioactivity in the samples was determined using an LS 8100 Beckman liquid scintillation counter linked to a Techtran tape recorder. Data was processed through an in-house computer system. Alternatively, radioactivity was determined using a Searle Mark III liquid scintillation counter linked to a Iso-Data microprocessor.
# (b) Preparation of Platelets
# Blood was collected from anesthesized or unanesthesized dogs into 50 ml plastic centrifuge tubes containing 3.8% sodium citrate as the anticoagulant (1 volume of citrate/9 volumes of blood). The red cells were removed by centrifugation for 15 minutes at 600 rpm (100-125 g) at room temperature. An aliquot of the supernatant platelet rich plasma (PRP) was saved for cell counting and the remainder was acidified by pH 6.5 with 0.15M citric acid. The platelet pellet was obtained after a 10 minute centrifugation at 2000 rpm (1000 g) at room temperature. Washed platelets were prepared by resuspending the platelet pellet once with PBS containing 1 mM EDTA, centrifuging as noted, and then resuspending the platelets in 0.1% BSA-PBS. An aliquot of the washed platelets was counted. Platelets used for binding assays were diluted to 2×10^7 platelets/assay tube (4×10^8 platelets/ml). Platelet counting was done using a Royco Cell-Crit 921.
# [2] = system: PAF-induced Bronchoconstriction; experiment: PAF Induced Bronchoconstriction Assay; type: in vivo; details: guinea pig, ± standard error of the mean; for Percent Inhib. of PAF-induced Bronchoconstriction, 50 mg/Kg p.o.: 2-hour pretreatment, PAF i.v.; for Percent Inhib. of PAF-induced Bronchoconstriction, 1 mg/Kg i.v.: 1 minute pretreatment, PAF 1.0 μg/kg i.v.
# Experimental: PAF Induced Bronchoconstriction Assay
# Male animals (Hartlet Strain, 400-500 g) were anesthetized with urethane (2 g/kg, i.p.). Each animals' trachea was cannulated and the guinea pigs were respirated using a Harvard small animal rodent respirator (3.0 cc stroke volume, 40 breaths per min.). Tracheal pressure was recorded from a cannula inserted in the trachea and connected to a Statham Pressure Transducer.
# The jugular vein was cannulated for administering compounds. Spontaneous breathing was arrested with succinylcholine (1.2 mg/kg, i.v.) administered 2 minutes prior to intravenous injection of platelet activating factor (PAF).
# For, the intravenous testing, the guinea pig is given a 5-minute pretreatment with propranolol at a dose of 0.1 mg/kg intravenously. The test compound is administered with a 1 minute pretreatment prior to intravenous challenge with PAF. The animal is then challenged with a 1.0 μg/kg intravenous dose of PAF and the change is tracheal pressure is measured.
# For the oral testing, the procedure includes a 2-hour pretreatment period with the test compound administered through an oral gavage tube. Propranolol or succinylcholine and PAF are administered intravenously, and the change in tracheal pressure measured.
# The change is tracheal pressure is determined by subtracting the steady state baseline achieved after administration of succinylcholine from the peak bronchoconstriction seen after challenge with PAF. The mean is calculated for each test compound and compared to the mean of the control animals to give the percent inhibition of bronchoconstriction. The standard error is calculated as the standard error of the mean.
SMILES,pIC50 [1],"Percent Inhib. of PAF-induced Bronchoconstriction, 50 mg/Kg p.o. [2]","Percent Inhib. of PAF-induced Bronchoconstriction, 1 mg/Kg i.v. [2]"
"C[C@@]1(/C=C/C(=O)NCCCCc2cccnc2)CC1(c1ccc(F)cc1)c1ccc(F)cc1 [[S-(E)]-3-[2,2-bis(4-Fluorophenyl)-1-methylcyclopropyl]-N-[4-(3-pyridinyl)butyl]-2-propenamide]",6.70,,
"C[C@H](CCCc1cccnc1)NC(=O)/C=C/[C@@H]1CC1(c1ccc(F)cc1)c1ccc(F)cc1 (relative stereo) [[S,R*-(E)]-3-[2,2-bis(4-Fluorophenyl)cyclopropyl]-N-[1-methyl-4-(3-pyridinyl)butyl]-2-propenamide]",6.35,,
"COc1cccc(C2(c3cccc(OC)c3)CC2/C=C/C(=O)NCCCCc2cccnc2)c1 (racemic) [[R,S-(E)]-3-[2,2-bis(3-Methoxyphenyl)cyclopropyl]-N-[4-(3-pyridinyl)butyl]-2-propenamide]",7.15,14 ± 1%,
"O=C(/C=C\C1CC1(c1ccc(F)cc1)c1ccc(F)cc1)NCCCCc1cccnc1 (racemic) [[R,S-(Z)]-3-[2,2-bis(4-Fluorophenyl)cyclopropyl]-N-[4-[3-pyridinyl)butyl]-2-propenamide]",6.00,78 ± 11%,
"O=C(CC[C@H]1CC1(c1ccccc1)c1ccccc1)NCCCCc1cccnc1 [(S)-2,2-Diphenyl-N-[4-(3-pyridinyl)butyl]cyclopropanepropanamide]",6.70,,
"C[C@H](CCCc1cccnc1)NC(=O)/C=C/[C@@H]1CC1(c1cccc(F)c1)c1cccc(F)c1 (relative stereo) [[S,R*-(E)]-3-[2,2-bis(3-Fluorophenyl)cyclopropyl]-N-[1-methyl-4-(3-pyridinyl)butyl]-2-propenamide]",6.89,,
"O=C(/C=C/C1CC1(c1ccccc1)c1ccccc1)NCCCCc1cccnc1 (racemic) [[R,S-(E)]-3-(2,2-Diphenylcyclopropyl)-N-[4-(3-pyridinyl)butyl]-2-propenamide]",6.82,,48 ± 16%
"O=C(/C=C\[C@H]1CC1(c1ccccc1)c1ccccc1)NCCCCc1cccnc1 [[R-(Z)]-3-(2,2-Diphenylcyclopropyl)-N-[4-(3-pyridinyl)butyl]-2-propenamide]",7.00,,
"O=C(/C=C/C1CC1(c1cccc(C(F)(F)F)c1)c1cccc(C(F)(F)F)c1)NCCCCc1cccnc1 (racemic) [[R,S-(E)]-3-[2,2-bis[3-(trifluoromethyl)phenyl]cyclopropyl]-N-[4-(3-pyridinyl)butyl]-2-propenamide]",6.46,,
"O=C(/C=C/[C@@H]1CC1(c1ccc(F)cc1)c1ccc(F)cc1)NCCCCc1cccnc1 [[S-(E)]-3-[2,2-bis(4-Fluorophenyl)cyclopropyl]-N-[4-(3-pyridinyl)butyl]-2-propenamide]",7.60,62 ± 13%,33 ± 7%
"COc1cccc(C2(c3cccc(OC)c3)CC2/C=C/C(=O)NC(C)CCCc2cccnc2)c1 (stereo in doubt) [(S,R*)-(E)-3-[2,2-bis(3-Methoxyphenyl)cyclopropyl]-N-[1-methyl-4-(3-pyridinyl)butyl]-2-propenamide]",6.35,,
"COc1cccc([C@@]2(c3ccccc3)C[C@@H]2/C=C/C(=O)NCCCCc2cccnc2)c1 (relative stereo) [[1(R,S),2(S,R)-(E)]-3-[[2-(3-Methoxyphenyl)-2-phenyl]cyclopropyl]-N-[4-(3-pyridinyl)butyl]-2-propenamide]",7.46,,
"COc1cccc([C@]2(c3ccccc3)C[C@@H]2/C=C\C(=O)NCCCCc2cccnc2)c1 (relative stereo) [[1(R,S),2(R,S)-(Z)]-3-[[2-(3-Methoxyphenyl)-2-phenyl]cyclopropyl]-N-[4-(3-pyridinyl)butyl]-2-propenamide]",6.52,9 ± 14%,
"S=C(/C=C/C1CC1(c1ccccc1)c1ccccc1)NCCCCc1cccnc1 (racemic) [(R,S)-(E)-3-(Diphenylcyclopropyl)-N-[4-(3-pyridinyl)butyl]-2-propenethioamide]",7.26,,
"O=C(/C=C/[C@H]1CC1(c1ccc(F)cc1)c1ccc(F)cc1)NCCCCc1cccnc1 [[R-(E)]-3-[2,2-bis(4-Fluorophenyl)cyclopropyl]-N-[4-(3-pyridinyl)butyl]-2-propenamide]",6.70,83 ± 31%,13 ± 11%
"O=C(/C=C/[C@H]1CC1(c1cccc(F)c1)c1cccc(F)c1)NCCCCc1cccnc1 [[R-(E)]-3-[2,2-bis(3-Fluorophenyl)cyclopropyl]-N-[4-(3-pyridinyl)butyl]-2-propenamide]",6.70,10 ± 13%,29 ± 3%
"COc1cccc(C2(c3cccc(OC)c3)C[C@H]2/C=C/C(=O)NCCCCc2cccnc2)c1 [[S-(E)]-3-[2,2-bis(3-Methoxyphenyl)cyclopropyl]-N-[4-(3-pyridinyl)butyl]-2-propenamide]",7.44,,25 ± 8%
"COc1cccc([C@@]2(c3ccccc3)C[C@@H]2/C=C\C(=O)NCCCCc2cccnc2)c1 (relative stereo) [[1(R,S),2(S,R)-(Z)]-3-[[2-(3-Methoxyphenyl)-2-phenyl]cyclopropyl]-N-[4-(3-pyridinyl)butyl]-2-propenamide]",6.60,15 ± 12%,
"COc1cccc(C2(c3cccc(OC)c3)C[C@@H]2/C=C/C(=O)NCCCCc2cccnc2)c1 [[R-(E)]-3-[2,2-bis(3-Methoxyphenyl)cyclopropyl]-N-[4-(3-pyridinyl)butyl]-2-propenamide]",6.52,8 ± 2%,8 ± 5%
"O=C(CCC1CC1(c1ccccc1)c1ccccc1)NCCCCc1cccnc1 (racemic) [(R,S)-2,2-Diphenyl-N-[4-(3-pyridinyl)butyl]cyclopropanepropanamide]",6.52,,
"COc1cccc([C@]2(c3ccccc3)C[C@@H]2/C=C/C(=O)NCCCCc2cccnc2)c1 (relative stereo) [[1(R,S),2(R,S)-(E)]-3-[[2-(3-Methoxyphenyl)-2-phenyl]cyclopropyl]-N-[4-(3-pyridinyl)butyl]-2-propenamide]",8.10,,
"CC1(/C=C/C(=O)NCCCCc2cccnc2)CC1(c1ccc(F)cc1)c1ccc(F)cc1 (racemic) [[R,S-(E)]-3-[2,2-bis(4-Fluorophenyl)-1-methylcyclopropyl]-N-[4-(3-pyridinyl)butyl]-2-propenamide]",6.52,,
"O=C(/C=C\C1CC1(c1ccccc1)c1ccccc1)NCCCCc1cccnc1 (racemic) [[R,S-(Z)]-3-(2,2-Diphenylcyclopropyl)-N-[4-(3-pyridinyl)butyl]-2-propenamide]",6.19,,
"C[C@]1(/C=C/C(=O)NCCCCc2cccnc2)CC1(c1ccc(F)cc1)c1ccc(F)cc1 [[R-(E)]-3-[2,2-bis(4-fluorophenyl)-1-methylcyclopropyl]-N-[4-(3-pyridinyl)butyl]-2-propenamide]",6.30,,
"O=C(CC[C@@H]1CC1(c1ccccc1)c1ccccc1)NCCCCc1cccnc1 [(R)-2,2-Diphenyl-N-[4-(3-pyridinyl)butyl]cyclopropanepropanamide]",6.22,,
"O=C(/C=C\[C@@H]1CC1(c1ccccc1)c1ccccc1)NCCCCc1cccnc1 [[S-(Z)]-3-(2,2-Diphenylcyclopropyl)-N-[4-(3-pyridinyl)butyl]-2-propenamide]",6.00,,
